Here are results for 21 compounds from US9328099B2, “Cyanomethylpyrazole carboxamides as janus kinase inhibitors” (Merck Sharp & Dohme Corp., priority 2011, dated 2016).

The pIC50 is −log10 of the IC50, conventionally taken in molar units.

pIC50: −log10 of the molar value. Where two headings read alike, the source gives them in different places.

Experiment [1] deals with JAK2 (Homo sapiens (Human), UniProt O60674). The experiment in a line: Jak Biochemical HTRF Assay, JAK2. The text has this:
(§1) Jak Biochemical HTRF Assay Protocol
(§2) Subsequent reagent additions employed an Agilent Bravo.
(Time-resolved FRET reads energy transfer from a long-lived donor to a nearby acceptor.)

Experiment [2] has as its target JAK1 (Homo sapiens (Human), UniProt P23458). The experiment in a line: Jak Biochemical HTRF Assay, JAK1. The note with it: HTRF biochemical assay, GST-tagged catalytic domain; top concentration tested […]; read-out: JAK1 IC50.
From the text: as §1, §2

Setting [3] is: HTRF biochemical assay, GST-tagged catalytic domain, top concentration tested […].

JAK1, sequence (P23458 875-1153): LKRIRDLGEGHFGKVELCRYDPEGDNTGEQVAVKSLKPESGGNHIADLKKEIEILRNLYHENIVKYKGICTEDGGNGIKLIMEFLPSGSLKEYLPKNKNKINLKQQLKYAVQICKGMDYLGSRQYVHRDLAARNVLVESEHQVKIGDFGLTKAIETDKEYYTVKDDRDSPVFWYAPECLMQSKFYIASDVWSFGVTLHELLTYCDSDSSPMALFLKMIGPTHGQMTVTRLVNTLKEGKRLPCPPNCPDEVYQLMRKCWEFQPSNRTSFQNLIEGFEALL
JAK2, sequence (O60674 849-1124): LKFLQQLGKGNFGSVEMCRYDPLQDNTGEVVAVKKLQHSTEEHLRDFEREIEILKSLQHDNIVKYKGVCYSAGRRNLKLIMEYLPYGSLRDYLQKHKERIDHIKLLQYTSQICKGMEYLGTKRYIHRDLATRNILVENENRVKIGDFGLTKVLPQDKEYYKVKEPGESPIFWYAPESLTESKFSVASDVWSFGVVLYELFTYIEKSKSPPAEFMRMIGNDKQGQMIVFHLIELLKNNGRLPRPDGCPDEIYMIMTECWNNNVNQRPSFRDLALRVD

As to `N#CCC1(n2cc(C(N)=O)c(Nc3ccc(F)cc3)n2)CCN(C(=O)OC2CCOC2)CC1` (single isomer, unassigned) [Example 50-1, (3S or 3R)-tetrahydrofuran-3-yl 4-{4-carbamoyl-3-[(4-fluorophenyl)amino]-1H-pyrazol-1-yl}-4-(cyanomethyl)piperidine-1-carboxylate], the pIC50 in experiment [1] (setting [3]) is 7.33. On the same count and under the same terms, next, `C[C@H]1CN(C(=O)OC(C)(C)C)CC[C@]1(CC#N)n1cc(C(N)=O)c(Nc2ccccc2)n1` (racemic) [Example 2-9, tert-Butyl (3S,4R and 3R,4S)-4-[4-carbamoyl-3-(phenylamino)-1H-pyrazol-1-yl]-4-(cyanomethyl)-3-methylpiperidine-1-carboxylate]: 7.68; `N#CCC1(n2cc(C(N)=O)c(Nc3ccc(F)cc3)n2)CCN(C(=O)OC2CCOC2)CC1` (stereo not drawn) [Example 30-46, tetrahydrofuran-3-yl 4-{4-carbamoyl-3-[(4-fluorophenyl)amino]-1H-pyrazol-1-yl}-4-(cyanomethyl)piperidine-1-carboxylate]: 7.43. As for `N#CCC1(n2cc(C(N)=O)c(Nc3ccc(S(=O)(=O)C(F)F)cc3)n2)CCC(Nc2ccc(O)cc2)CC1` (stereo not drawn) [Example 40-7, Cis or trans 1-{1-(cyanomethyl)-4-[(4-hydroxyphenyl)amino]cyclohexyl}-3-({4-[(difluoromethyl)sulfonyl]phenyl}amino)-1H-pyrazole-4-carboxamide], the pIC50 in experiment [1] was 7.44. The compound `C[C@H]1CN(C(=O)OC(C)(C)C)CC[C@]1(CC#N)n1cc(C(N)=O)c(Nc2ccccc2)n1` (single isomer, unassigned) [Example 48-1, tert-Butyl (3S,4R or 3R,4S)-4-[4-carbamoyl-3-(phenylamino)-1H-pyrazol-1-yl]-4-(cyanomethyl)-3-methylpiperidine-1-carboxylate] gave a negative-log IC50 (pIC50) in experiment [1] (setting [3]) of 7.62. `N#CC[C@]1(n2cc(C(N)=O)c(Nc3ccccc3)n2)CC[C@@H](C(=O)NCC(F)(F)F)CC1` [Example 45-1, cis or trans 1-{1-(cyanomethyl)-4-[(2,2,2-trifluoroethyl)carbamoyl]cyclohexyl}-3-(phenylamino)-1H-pyrazole-4-carboxamide] gave a negative logarithm of the IC50 (pIC50) in experiment [1] of 6.52.

On to `N#CCC1(n2cc(C(N)=O)c(Nc3ccc(F)cc3)n2)CCC(=O)CC1` [Example 40-1A, 1-(1-(Cyanomethyl)-4-oxocyclohexyl)-3-((4-fluorophenyl)amino)-1H-pyrazole-4-carboxamide], for which the pIC50 in experiment [1] (setting [3]) is 7.41. In experiment [1], `N#CCC1(n2cc(C(N)=O)c(Nc3ccc(S(=O)(=O)C(F)F)cc3)n2)CCC(Nc2cccnc2)CC1` (stereo not drawn) [Example 40-9, Cis or trans 1-[1-(cyanomethyl)-4-(pyridin-3-ylamino)cyclohexyl]-3-({4-[(difluoromethyl)sulfonyl]phenyl}amino)-1H-pyrazole-4-carboxamide] showed a pIC50 of 6.45. In the case of `N#CCC1(n2cc(C(N)=O)c(Nc3ccc(F)cc3)n2)CCC(NC2CCOCC2)CC1` (stereo not drawn) [Example 40-65, Cis or trans 1-[1-(cyanomethyl)-4-(tetrahydro-2H-pyran-4-ylamino)cyclohexyl]-3-[(4-fluorophenyl)amino]-1H-pyrazole-4-carboxamide], the pIC50 in experiment [1] was 6.89. As to `N#CCC1(n2cc(C(N)=O)c(Nc3ccc(F)cc3)n2)CCN(C(=O)OC2CCOC2)CC1` (single isomer, unassigned) [Example 50-2, (3S or 3R)-tetrahydrofuran-3-yl4-{4-carbamoyl-3-[(4-fluorophenyl)amino]-1H-pyrazol-1-yl}-4-(cyanomethyl)piperidine-1-carboxylate], the pIC50 in experiment [1] (setting [3]) is 7.21. Compound `N#CCC1(n2cc(C(N)=O)c(Nc3ccccc3)n2)CCOCC1` [Example 6-5, 1-[4-(cyanomethyl)tetrahydro-2H-pyran-4-yl]-3-(phenylamino)-1H-pyrazole-4-carboxamide] showed a pIC50 in experiment [1] (setting [3]) of 6.88. In the case of `COC(=O)C(C)(C)OC(=O)N1CCC(CC#N)(n2cc(C(N)=O)c(Nc3ccc(F)cc3)n2)CC1` [Example 29-A, 1-Methoxy-2-methyl-1-oxopropan-2-yl4-{4-carbamoyl-3-[(4-fluorophenyl)amino]-1H-pyrazol-1-yl}-4-(cyanomethyl)piperidine-1-carboxylate], the pIC50 in experiment [1] was 7.40. Take `N#CCC1(n2cc(C(N)=O)c(Nc3ccc(S(=O)(=O)C(F)F)cc3)n2)CCC(Nc2ccccc2O)CC1` (stereo not drawn) [Example 40-32, Cis or trans 1-{1-(cyanomethyl)-4-[(2-hydroxyphenyl)amino]cyclohexyl}-3-({4-[(difluoromethyl)sulfonyl]phenyl}amino)-1H-pyrazole-4-carboxamide]: the pIC50 in experiment [1] was 6.75. With `N#CCC1(n2cc(C(N)=O)c(Nc3ccnc(F)c3)n2)CCC(Nc2ccccc2F)CC1` (stereo not drawn) [Example 40-24, Cis or trans 1-{1-(cyanomethyl)-4-[(2-fluorophenyl)amino]cyclohexyl}-3-[(2-fluoropyridin-4-yl)amino]-1H-pyrazole-4-carboxamide], the negative logarithm of the IC50 (pIC50) in experiment [2] was 8.10.

On to `N#CCC1(n2cc(C(N)=O)c(Nc3ccc(S(=O)(=O)C(F)F)cc3)n2)CCC(Nc2cccc(O)c2)CC1` (stereo not drawn) [Example 40-14, Cis or trans 1-{1-(cyanomethyl)-4-[(3-hydroxyphenyl)amino]cyclohexyl}-3-({4-[(difluoromethyl)sulfonyl]phenyl}amino)-1H-pyrazole-4-carboxamide], for which, in experiment [1], the pIC50 was 7.19.

In the case of `N#CCC1(n2cc(C(N)=O)c(Nc3ccnc(F)c3)n2)CCC(Nc2ccccc2F)CC1` (stereo not drawn) [Example 40-17, Cis or trans 1-{1-(cyanomethyl)-4-[(2-fluorophenyl)amino]cyclohexyl}-3-[(2-fluoropyridin-4-yl)amino]-1H-pyrazole-4-carboxamide], the pIC50 in experiment [2] is 10.40. With `C[C@H]1CN(C(=O)OC(C)(C)C)CC[C@]1(CC#N)n1cc(C(N)=O)c(Nc2ccccc2)n1` (single isomer, unassigned) [Example 48-2, tert-Butyl (3S,4R or 3R,4S)-4-[4-carbamoyl-3-(phenylamino)-1H-pyrazol-1-yl]-4-(cyanomethyl)-3-methylpiperidine-1-carboxylate], the pIC50 in experiment [1] (setting [3]) was 6.31. With `N#CCC1(n2cc(C(N)=O)c(Nc3ccc(F)cc3)n2)CCC(Nc2cc(F)ccc2F)CC1` (stereo not drawn) [Example 40-50, Cis and trans 1-{1-(cyanomethyl)-4-[(2,5-difluorophenyl)amino]cyclohexyl}-3-[(4-fluorophenyl)amino]-1H-pyrazole-4-carboxamide], the pIC50 in experiment [2] was 10.00.

Turning to `N#CCC1(n2cc(C(N)=O)c(Nc3ccnc(F)c3)n2)CCC(NC2CCOCC2)CC1` (stereo not drawn) [Example 40-38, Cis or trans 1-[1-(cyanomethyl)-4-(tetrahydro-2H-pyran-4-ylamino)cyclohexyl]-3-[(2-fluoropyridin-4-yl)amino]-1H-pyrazole-4-carboxamide], the negative-log IC50 (pIC50) in experiment [1] was 6.99. `N#CCC1(n2cc(C(N)=O)c(Nc3ccccc3)n2)CCN(S(=O)(=O)c2ccc(C(F)(F)F)cc2)CC1` [Example 37-13, 1-[4-(cyanomethyl)-1-{[4-(trifluoromethyl)phenyl]sulfonyl}piperidin-4-yl]-3-(phenylamino)-1H-pyrazole-4-carboxamide]: the pIC50 in experiment [2] is 8.52.

Consider `COc1ccccc1CN1CCC(CC#N)(n2cc(C(N)=O)c(Nc3ccnc(F)c3)n2)CC1` [Example 22-66, 1-[4-(cyanomethyl)-1-(2-methoxybenzyl)piperidin-4-yl]-3-[(2-fluoropyridin-4-yl)amino]-1H-pyrazole-4-carboxamide], for which the negative logarithm of the IC50 (pIC50) in experiment [2] is 8.70.
